Measured values as given in patent publication US20230121313A1 (priority 2019, published 2023).

Columns and labels:
[1] = Pharmacokinetics of intranasal esketamine 28, 56, 84 mg in healthy subjects (Example 9); settings: for AUC(0-inf) / AUC(0-t) / Cmax / half-life / Tmax: both, human, plasma; for Tmax: healthy subjects
Description: This was an open-label, single-center study. The subjects were healthy Caucasian men and women, 20 to 55 years of age, inclusive. […] The solution consisted of:
Pharmacokinetic blood samples for measurement of esketamine and noresketamine concentrations in plasma were collected from predose until up to 24 hours after each intranasal esketamine regimen on Day 1 of each period.
Blood samples (4 mL each) for determination of esketamine and noresketamine plasma concentrations were collected into the appropriate collection tube (e.g., Vacutainer®) at timepoints 0.00, 0.12, 0.20, 0.37, 0.53, 0.67, 0.83, 1.00, 1.25, 1.50, 2.00, 3.00, 4.00, 6.00, 9.00, 12.00, 18.00, and 24.00 h. The total amount of blood to be drawn for clinical laboratory tests and PK evaluations is approximately 327 mL.
Plasma samples were analyzed for esketamine and noresketamine concentrations using the validated, specific and sensitive liquid chromatography coupled to tandem mass spectrometry (LC-MS/MS) achiral method of Example 8.
Serial PK blood samples (4 mL each) were collected for a 24-hour period from each subject (Periods 1, 2, and 3).
The following key parameters of esketamine and noresketamine in plasma were calculated using noncompartmental methods and actual sampling times: Cmax, tmax, AUClast, AUC∞, t1/2,λ, and λz.

subjects with TRD [2] = settings: human, in vivo, other: intranasal
Description: Transient blood pressure increases peaked for the esketamine group at approximately 40 minutes post dose and returned closer to predose levels by 1.5 hours post dose.

subjects with TRD [3] = settings: human, in vivo, other: intranasal; remark: listed apart in the source
Description: The Clinician Administered Dissociative States Scale (CADSS) was measured prior to the start of each dose, at 40 minutes, and 1.5 hours postdose.

## CN[C@]1(c2ccccc2Cl)CCCCC1=O [esketamine, (S)-2-(2-chlorophenyl)-2-(methylamino)cyclohexanone]
[1]; inhaled or intranasal, 28 mg
  AUC(0-inf): 136 ng·h/mL
  AUC(0-t): 128 ng·h/mL
  Cmax: 49.7 ng/mL
  half-life: 7.25 h
[1]; inhaled or intranasal, 28 mg, tmax, esketamine in plasma, single intranasal 28 mg (Treatment A), median
  Tmax: 0.67 h
[1]; inhaled or intranasal, 56 mg
  AUC(0-inf): 222 ng·h/mL
  AUC(0-t): 216 ng·h/mL
  Cmax: 74.1 ng/mL
  half-life: 7.25 h
[1]; inhaled or intranasal, 56 mg, tmax, esketamine in plasma, single intranasal 56 mg (Treatment B), median
  Tmax: 0.67 h
[1]; inhaled or intranasal, 84 mg
  AUC(0-inf): 329 ng·h/mL
  AUC(0-t): 310 ng·h/mL
  Cmax: 103 ng/mL
  half-life: 7.11 h
[1]; inhaled or intranasal, 84 mg, Median tmax of esketamine, range across regimens, intranasal 28, 56, 84 mg
  Tmax: 0.67 to 0.83 h
[1]; inhaled or intranasal, 84 mg, tmax, esketamine in plasma, single intranasal 84 mg (Treatment C), median
  Tmax: 0.83 h
[1]; other: intranasal, 84 mg
  half-life: 7.11 to 7.25 h
[1]; esketamine in plasma
  AUC (AUClast and AUC∞) variability: 25.0% to 30.4
  Cmax variability (percent coefficient of variation) across the 3 treatment groups: 35.7% to 36.7
Subjects with TRD [2]
  Blood pressure returned closer to predose levels by (post dose): ≤ 1.5 h
  Transient blood pressure increases: time of peak post dose: approximately 40 minutes
Subjects with TRD [3]
  CADSS dissociative and perceptual change symptoms resolved by (postdose): ≤ 1.5 h
